Assay: pharmacological and clinical studies (potency versus racemate, influence of R-citalopram)
Type: in vivo
Conditions: presence of R-citalopram
Description: This may be shown in functional in-vivo pharmacological models and studies of 5-HT-reuptake effect and or in behaviour models, for example depression models.

**Q.** For CN(C)CCC[C@]1(c2ccc(F)cc2)OCc2cc(C#N)ccc21 [R-citalopram], which “influence on the effect of escitalopram” value is on record?
**A.** negative impact on the effect of escitalopram

Reference: patent US20040192764A1 (H. Lundbeck A/S, priority 2001, published 2004)
